Measurements reported in PubChem BioAssay (NCI).
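Assay format: 96-well plates, 48-hour exposure. TGI is the concentration that stops growth completely.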

Experiments:
Test in all cases: NCI-60 cell line screen, 48 h
[1] = tested on: SK-MEL-5 melanoma
[2] = tested on: EKVX NSCLC
[3] = tested on: DU-145 prostate
[4] = tested on: SF-295 CNS
[5] = tested on: HOP-62 NSCLC
[6] = tested on: NCI-H226 lung
[7] = tested on: SF-539 CNS
[8] = tested on: NCI/ADR-RES ovarian
[9] = tested on: U251 CNS
[10] = tested on: UACC-257 melanoma
[11] = tested on: MCF7 breast

`O=C1C(NCCc2cc(Br)c(O)c(Br)c2)=CC(=O)c2ncccc21` gave a TGI [1] of 2.83 µM, a TGI [2] of 30.7 µM and a TGI [3] of 12 µM. It also gave a TGI [4] of 12.9 µM, a TGI [5] of 9.99 µM and a TGI [6] of 8.52 µM. For the same molecule, the TGI [7] was 5.36 µM, the TGI [8] was 49.5 µM and the TGI [9] was 33 µM. It also gave a TGI [10] of 7.73 µM and a TGI [11] of 17.4 µM.

`CCOc1ccc(C2c3[nH]c4ccccc4c3CCN2C(=O)c2cccs2)cc1` (centres undefined) was tested, and the TGI [1] was over 100 µM, the TGI [2] was over 100 µM and the TGI [3] was over 100 µM. For the same molecule, the TGI [4] was over 100 µM, the TGI [5] was over 100 µM and the TGI [6] was 43.4 µM. It also gave a TGI [7] of over 100 µM, a TGI [8] of over 100 µM and a TGI [9] of over 100 µM. It also gave a TGI [10] of over 100 µM and a TGI [11] of over 100 µM.

`CCCCCCC(N)(CCCCCC)C(=O)Nn1c(C)ccc1C` gave a TGI [1] of over 100 µM, a TGI [2] of 58.4 µM and a TGI [3] of over 100 µM. The TGI [4] was over 100 µM, the TGI [5] was over 100 µM and the TGI [6] was over 100 µM. It also gave a TGI [8] of over 100 µM, a TGI [9] of over 100 µM and a TGI [10] of over 100 µM. It also gave a TGI [11] of 59.4 µM.

`COc1ccc(CSCc2cc(OC)c(OC)c(OC)c2)cc1` gave a TGI [1] of over 100 µM, a TGI [2] of over 31.6 µM and a TGI [3] of over 100 µM. For the same molecule, the TGI [4] was over 100 µM, the TGI [5] was over 100 µM and the TGI [6] was over 100 µM. For the same molecule, the TGI [7] was over 100 µM, the TGI [8] was over 31.6 µM and the TGI [9] was over 100 µM. It also gave a TGI [10] of over 31.6 µM and a TGI [11] of over 100 µM.

With `CCC(=O)N(c1ccccc1)C(C)CN1CCC(O)(c2ccccc2)CC1` (centres undefined) the TGI [1] was over 100 µM, the TGI [2] was over 100 µM and the TGI [3] was over 100 µM. It also gave a TGI [4] of over 100 µM, a TGI [5] of over 100 µM and a TGI [6] of over 100 µM. The TGI [7] was over 100 µM, the TGI [8] was over 100 µM and the TGI [9] was over 100 µM. It also gave a TGI [10] of over 100 µM and a TGI [11] of over 100 µM.

In the case of `CCn1c(=O)c2c(=O)[nH][nH]c2c2ccccc21`, the TGI [1] is reported as over 100 µM, the TGI [2] is reported as over 100 µM and the TGI [3] is reported as over 100 µM. For the same molecule, the TGI [4] was over 100 µM, the TGI [5] was over 100 µM and the TGI [6] was over 100 µM. It also gave a TGI [7] of over 100 µM, a TGI [8] of over 100 µM and a TGI [9] of over 100 µM. For the same molecule, the TGI [10] was over 100 µM and the TGI [11] was over 100 µM.

Work on `NN/C(=N\S(=O)(=O)c1cc(Cl)c(Oc2ccc([N+](=O)[O-])cc2Cl)c(Cl)c1)Nc1ccc(Cl)cc1` yielded a TGI [1] of 29.4 µM, a TGI [2] of 61.2 µM and a TGI [3] of 38.4 µM. The TGI [4] was 50.4 µM, the TGI [5] was 41 µM and the TGI [6] was 33.4 µM. For the same molecule, the TGI [7] was 31.3 µM, the TGI [8] was 67.9 µM and the TGI [9] was 30.8 µM. For the same molecule, the TGI [10] was 34.6 µM and the TGI [11] was 58.4 µM.

`CCN(CC)c1ccc(/C=C/C2=NN(c3cccc(S(=O)(=O)O)c3)C3(C2)C(Cl)C(=O)N3c2nc3ccccc3s2)cc1` (centres undefined) gave a TGI [1] of 20.9 µM, a TGI [2] of 39.2 µM and a TGI [3] of 25.2 µM. It also gave a TGI [4] of 27.7 µM, a TGI [5] of 22.9 µM and a TGI [6] of 34.2 µM. For the same molecule, the TGI [7] was 10.6 µM, the TGI [8] was over 79.3 µM and the TGI [9] was 15.5 µM. The TGI [10] was 22.6 µM and the TGI [11] was 21.1 µM.

In the case of `O=C(O)CCC(=O)Nc1ccc2c(c1)S(=O)(=O)N(CC(=O)O)C2=O`, the TGI [1] is reported as over 100 µM, the TGI [2] is reported as over 100 µM and the TGI [3] is reported as over 100 µM. It also gave a TGI [4] of over 100 µM, a TGI [5] of over 100 µM and a TGI [6] of over 100 µM. It also gave a TGI [7] of over 100 µM, a TGI [8] of over 100 µM and a TGI [9] of over 100 µM. For the same molecule, the TGI [10] was over 100 µM and the TGI [11] was over 100 µM.

`O=c1cc(-c2ccc(O)c(O)c2)oc2cc(OC3OC(CO)C(O)C(O)C3O)cc(O)c12` (centres undefined) showed a TGI [1] of over 100 µM, a TGI [2] of over 100 µM and a TGI [3] of over 100 µM. The TGI [4] was over 100 µM, the TGI [5] was over 100 µM and the TGI [6] was over 100 µM. The TGI [7] was over 100 µM, the TGI [8] was over 100 µM and the TGI [9] was over 100 µM. The TGI [10] was over 100 µM and the TGI [11] was over 100 µM.

`Cc1c(-c2ccccc2)c(-c2ccc(OCCN(C)C)cc2)n2ccccc12` was tested, and the TGI [1] was 3.44 µM, the TGI [2] was 31.8 µM and the TGI [3] was 26.3 µM. It also gave a TGI [4] of 26.7 µM, a TGI [5] of 28.6 µM and a TGI [6] of 30.9 µM. It also gave a TGI [7] of 24.8 µM, a TGI [8] of 27.5 µM and a TGI [9] of 24.7 µM. It also gave a TGI [10] of 4.16 µM and a TGI [11] of 23.7 µM.

In the case of `COc1ccc(/C=C/C(=O)NCC(NC(=O)/C=C/c2ccc(OC)c(OC)c2)C(=O)O)cc1OC` (centres undefined), the TGI [1] is reported as over 100 µM, the TGI [2] is reported as over 100 µM and the TGI [3] is reported as over 100 µM. The TGI [4] was over 100 µM, the TGI [5] was over 100 µM and the TGI [6] was over 100 µM. The TGI [7] was over 100 µM, the TGI [8] was 0.0691 µM and the TGI [9] was over 100 µM. For the same molecule, the TGI [10] was over 100 µM and the TGI [11] was over 100 µM.

Work on `Cc1ccc2c(c1)C(C1Cc3c(C)cccc3C1=O)OC2=O` (centres undefined) yielded a TGI [1] of over 100 µM, a TGI [2] of over 100 µM and a TGI [3] of over 100 µM. It also gave a TGI [4] of over 100 µM, a TGI [5] of over 100 µM and a TGI [6] of over 100 µM. For the same molecule, the TGI [7] was over 100 µM, the TGI [8] was over 100 µM and the TGI [9] was over 100 µM. It also gave a TGI [10] of over 100 µM and a TGI [11] of over 100 µM.

For `O=C(/C=C/c1ccc(O)c(O)c1)NC(CO)C(=O)O` (centres undefined), the TGI [1] was over 100 µM, the TGI [2] was over 100 µM and the TGI [3] was over 100 µM. It also gave a TGI [4] of over 100 µM, a TGI [5] of over 100 µM and a TGI [6] of over 100 µM. The TGI [7] was over 100 µM, the TGI [8] was 64.6 µM and the TGI [9] was over 100 µM. The TGI [10] was over 100 µM and the TGI [11] was over 100 µM.

In the case of `N[C@@H]1C[C@H](N)c2c(Cl)sc(Cl)c21`, the TGI [1] is reported as over 100 µM, the TGI [2] is reported as over 100 µM and the TGI [3] is reported as over 100 µM. It also gave a TGI [4] of over 100 µM, a TGI [5] of over 100 µM and a TGI [6] of over 100 µM. The TGI [7] was over 100 µM, the TGI [8] was over 100 µM and the TGI [9] was over 100 µM. For the same molecule, the TGI [10] was over 100 µM and the TGI [11] was over 100 µM.
